# Experimental data reported in US9475773B2, “NK3 receptor antagonist compound (NK3RA) for use in a method for the treatment of polycystic ovary syndrome (PCOS)” (ASTRAZENECA AB, priority 2013, dated 2016).
# What was measured:
# hrNK3 receptor = biological target: T1, hrNK3 receptor (Homo sapiens, UniProt P29371); assay: Intracellular Calcium Mobilisation Assay (hrNK3 CHO-K1 cells, Senktide, FLIPR); type: cell-based
# T1 construct: expressed in transfected cells; host or cells: CHO-K1
# T1 sequence (P29371 1-465): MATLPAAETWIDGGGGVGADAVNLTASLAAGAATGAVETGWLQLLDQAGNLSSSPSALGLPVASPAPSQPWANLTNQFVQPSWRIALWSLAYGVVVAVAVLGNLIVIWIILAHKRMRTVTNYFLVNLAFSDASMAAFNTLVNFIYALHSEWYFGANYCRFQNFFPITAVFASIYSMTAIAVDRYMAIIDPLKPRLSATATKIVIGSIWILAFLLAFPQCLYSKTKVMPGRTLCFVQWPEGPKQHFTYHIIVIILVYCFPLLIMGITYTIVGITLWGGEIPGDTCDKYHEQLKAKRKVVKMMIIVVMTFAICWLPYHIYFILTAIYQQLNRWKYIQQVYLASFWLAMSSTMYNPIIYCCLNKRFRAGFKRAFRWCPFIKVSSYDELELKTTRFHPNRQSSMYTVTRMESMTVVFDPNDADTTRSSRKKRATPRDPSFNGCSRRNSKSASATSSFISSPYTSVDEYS
# Method: The activity of a compound in antagonising the hrNK3 receptor expressed in CHO cells may be measured in the following Intracellular Calcium Mobilisation Assay:
# CHO-K1 cells stably transfected with human recombinant Neurokinin-3 receptor (hrNK3 CHO-K1) were cultured in […] tissue culture flasks as monolayers in complete Ham's F-12 media (supplemented with 10% (v/v) FBS, 2 mM L-glutamine and […] Hygromycin B). Cultures are maintained under standard tissue culture conditions. For experiments, PBS was used to wash cells free of culture media and Trypsin was used to detach cells from the flask surface. Cells were counted, pelleted by centrifugation (100 g for 5 min) and resuspended in cell plating medium (UltraCULTURE by BioWhittaker 12-725F containing 200 mM L-Glutamine). […]
# Changes in intracellular free calcium were measured fluorometrically by loading hrNK3 CHO-K1 in 384-well plates with the calcium sensitive fluorescent dye, Fluo-4AM as described previously (Xiong et. al., Bioorg. Med. Chem. Lett. 2011, 21, 1896). […]
# A test compound was pre-dissolved in DMSO and incubated with cells to a final concentration of 0.1% (v/v) DMSO for 15 minutes. Assays were initiated by the addition of Senktide (purchased from Bachem) and the transient increase in Fluo-4-fluorescence monitored using a FLIPR (Fluorometric Imaging Plate Reader, Molecular Devices, Sunnyvale, U.S.A.).
# NK3 receptor = biological target: T2, NK3 receptor (Homo sapiens, UniProt P29371); assay: In vitro target engagement; type: binding; settings: n=12
# T2 sequence (P29371 1-465): T1 sequence (P29371 1-465)
# NK1 = NK1 (Homo sapiens, UniProt P25103); assay: Specificity over other tachykinin receptors (NK1); type: binding
# Sequence of NK1 (P25103 whole entry): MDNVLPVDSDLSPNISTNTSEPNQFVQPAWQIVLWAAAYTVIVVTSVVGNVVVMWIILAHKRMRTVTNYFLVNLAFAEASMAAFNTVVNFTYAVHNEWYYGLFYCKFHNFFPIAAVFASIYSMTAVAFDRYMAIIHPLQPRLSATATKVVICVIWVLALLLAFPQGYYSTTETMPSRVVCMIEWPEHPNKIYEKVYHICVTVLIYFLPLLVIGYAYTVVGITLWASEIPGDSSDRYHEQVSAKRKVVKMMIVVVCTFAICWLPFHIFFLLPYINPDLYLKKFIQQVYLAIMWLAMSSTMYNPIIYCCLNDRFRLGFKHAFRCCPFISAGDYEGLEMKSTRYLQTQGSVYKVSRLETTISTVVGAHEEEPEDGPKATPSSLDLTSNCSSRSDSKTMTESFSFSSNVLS
# NK2 = biological target: T3, NK2 (Homo sapiens, UniProt P21452); assay: Specificity over other tachykinin receptors (NK2); type: binding
# T3 sequence (P21452 1-398): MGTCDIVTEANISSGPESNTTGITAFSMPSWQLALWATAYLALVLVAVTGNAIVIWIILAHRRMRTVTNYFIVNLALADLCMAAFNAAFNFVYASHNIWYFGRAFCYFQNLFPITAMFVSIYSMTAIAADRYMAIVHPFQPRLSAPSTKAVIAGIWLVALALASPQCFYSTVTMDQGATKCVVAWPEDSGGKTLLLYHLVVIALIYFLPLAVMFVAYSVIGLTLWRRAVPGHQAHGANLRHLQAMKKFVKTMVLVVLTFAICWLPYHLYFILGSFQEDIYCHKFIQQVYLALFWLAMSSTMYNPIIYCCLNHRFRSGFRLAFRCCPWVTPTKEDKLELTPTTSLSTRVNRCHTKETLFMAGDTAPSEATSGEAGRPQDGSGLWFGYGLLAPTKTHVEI
# mice = assay: Neurobehavioral test battery in mice; type: in vivo; settings: oral doses 100, 300 and 600 mg/kg
# Method: (§1) Safety pharmacology studies were carried out on NK3RA and included tests to investigate possible effects on the central nervous system (CNS), cardiovascular system, and respiratory system.
# rat [1] = assay: Modified rat Irwin test; type: in vivo; settings: oral 46, 460 and 2022 mg/kg
# Method: as §1
# hERG channel = hERG channel (Homo sapiens, UniProt Q12809); assay: hERG channel in vitro (tail current); type: cell-based
# Sequence of hERG channel (Q12809 whole entry): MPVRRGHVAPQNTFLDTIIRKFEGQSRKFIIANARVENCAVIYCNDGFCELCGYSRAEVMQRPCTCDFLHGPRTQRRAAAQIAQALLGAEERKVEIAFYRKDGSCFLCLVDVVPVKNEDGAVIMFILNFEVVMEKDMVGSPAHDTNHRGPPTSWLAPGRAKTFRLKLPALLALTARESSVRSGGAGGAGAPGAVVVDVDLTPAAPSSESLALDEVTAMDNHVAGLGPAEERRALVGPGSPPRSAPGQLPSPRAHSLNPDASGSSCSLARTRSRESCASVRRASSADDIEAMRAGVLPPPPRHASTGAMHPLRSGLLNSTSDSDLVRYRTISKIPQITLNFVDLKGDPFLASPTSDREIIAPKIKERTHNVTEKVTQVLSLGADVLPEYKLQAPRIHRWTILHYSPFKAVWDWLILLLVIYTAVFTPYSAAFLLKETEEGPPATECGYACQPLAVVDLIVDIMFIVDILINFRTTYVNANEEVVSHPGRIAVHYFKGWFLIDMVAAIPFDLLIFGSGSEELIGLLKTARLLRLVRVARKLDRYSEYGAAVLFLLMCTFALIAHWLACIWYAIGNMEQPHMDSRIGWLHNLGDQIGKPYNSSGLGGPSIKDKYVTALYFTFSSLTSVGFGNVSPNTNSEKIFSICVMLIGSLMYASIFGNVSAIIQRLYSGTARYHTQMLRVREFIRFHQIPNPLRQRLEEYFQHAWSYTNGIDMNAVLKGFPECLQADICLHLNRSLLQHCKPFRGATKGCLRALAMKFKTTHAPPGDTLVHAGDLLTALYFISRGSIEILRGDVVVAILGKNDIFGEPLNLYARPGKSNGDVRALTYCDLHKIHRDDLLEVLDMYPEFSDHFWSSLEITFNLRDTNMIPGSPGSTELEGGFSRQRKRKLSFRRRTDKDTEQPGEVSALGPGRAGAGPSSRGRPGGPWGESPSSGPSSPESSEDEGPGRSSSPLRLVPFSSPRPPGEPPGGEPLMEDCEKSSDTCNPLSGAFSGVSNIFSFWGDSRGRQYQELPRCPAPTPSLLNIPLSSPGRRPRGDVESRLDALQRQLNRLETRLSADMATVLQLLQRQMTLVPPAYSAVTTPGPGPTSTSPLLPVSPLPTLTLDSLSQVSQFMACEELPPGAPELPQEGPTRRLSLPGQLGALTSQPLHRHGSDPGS
# guinea pig heart = assay: Monophasic action potential of the guinea pig heart; type: in vivo; settings: IV doses up to 46 mg/kg (100 μmol/kg)
# rat [2] = assay: Rat cocaine drug discrimination assay; type: in vivo; settings: oral doses up to 46 mg/kg
# dogs = assay: Single and repeat-dose toxicology in dogs; type: in vivo, dog
# Excerpt: In female dogs, ovarian uterine weights were reduced in treated animals. […] Thyroid weights were increased in the high dose group females. No other target organs have been identified.
# Epididymides and prostate glands had gained maturity, but aspermia was present in all dogs and testicular immaturity remained. […]
# female rats = assay: Rat female fertility and embryofetal development study; type: in vivo
# Method: In female rats the No Adverse Effect Dose Level for fetal minor abnormalities and variants was 1000 mg/kg/day.
# female rabbits = assay: Rabbit maternal toxicity and fetal observations; type: in vivo
# Method: In female rabbits, the no effect dose level for maternal toxicity was 25 mg/kg/day. The no adverse effect dose level for fetal observations was 50 mg/kg/day.
# serum testosterone [3] = assay: SAD and MAD studies, serum testosterone in healthy male volunteers; type: in vivo, human
# serum testosterone [4] = assay: Phase II PoP schizophrenia trial, serum testosterone; type: in vivo, human; settings: schizophrenia patients, 40 mg QD
structure (smiles),measurement,setting,value
"CC[C@H](NC(=O)c1c(NS(C)(=O)=O)c(-c2ccccc2)nc2ccccc12)c1ccccc1 [NK3RA, 3-(methanesulfonamido)-2-phenyl-N-[(1S)-1-phenylpropyl]quinoline-4-carboxamide]",activity at the hrNK3 receptor expressed in CHO cells,hrNK3 receptor,antagonist of the hrNK3 receptor
same,IC50,NK3 receptor,2.24 ± 0.57 nM
same,specificity for NK3 over NK1,NK1,greater than 1200 fold
same,specificity for NK3 over NK2,NK2,> 800 fold
same,neurobehavioral effects,mice,transient deficits in gait and spontaneous motor activity
same,time to full recovery,mice,≤ 24 h
same,findings in modified Irwin test,rat [1],no significant findings
same,inhibition at 97 µM,"hERG channel; human, 97 μM",25%
same,activity at the hERG channel,hERG channel; in vitro,only weakly active
same,effect on monophasic action potential,guinea pig heart,without effect
same,activity in cocaine drug discrimination,rat [2],no activity
same,"NOEL (testis, epididymis and prostate weights)",dogs; dog,no NOEL was established
same,plasma testosterone levels throughout the study,dogs; dog,virtually totally suppressed
same,testes weights following the recovery period,dogs; dog,only partially returned to control values
same,time after dosing by which plasma testosterone was very low,dogs; dog,≤ 4 h
same,hepatobiliary toxicity,dogs; dogs,hepatobiliary toxicity in one high dose male
same,thyroid weights,"dogs; dogs, high dose group females",increased
same,liver weights,"dogs; dogs, mid and high doses",Increased
same,"tolerability, multiple dosing for three month","dogs; dogs, up to 1000 mg/kg/day",well tolerated
same,"tolerability, single dosing","dogs; dogs, up to the limit dose of 2000 mg/kg",well tolerated
same,"female reproductive findings, 3-month study",dogs; female dogs,reductions in ovarian and uterine weights and an increased incidence of anestrus
same,ovarian uterine weights,dogs; female dogs,reduced
same,recovery of female reproductive findings,"dogs; female dogs, following 3 months off-dose",complete recovery
same,target organs in males,dogs; male dogs,"the testis, epididymis, and prostate were target organs"
same,No Adverse Effect Dose Level for fetal minor abnormalities and variants,female rats; female rats,1000 mg/kg/day
same,"estrus cycles, mating performance and fertility","female rats; rat, in vivo",Disturbed estrus cycles were seen with no adverse effects on mating performance or fertility
same,no adverse effect dose level for fetal observations,female rabbits,50 mg/kg/day
same,no effect dose level for maternal toxicity,female rabbits,25 mg/kg/day
same,serum testosterone,"serum testosterone [3]; healthy male volunteers, SAD 1-80 mg, MAD 5 mg QD to 30 mg BID for up to 6 days",dose dependent reduction in serum testosterone
same,durability of total testosterone reduction,serum testosterone [3]; male volunteers and male schizophrenia patients,reductions in total testosterone levels durable up to 28 days
same,serum testosterone,serum testosterone [4],reduction in serum testosterone
